Source: ChEMBL document CHEMBL1150849, “Antiprotozoal activity of the constituents of Conyza filaginoides” (J Nat Prod, 2001)
Converted amounts (≈) assume the structure as drawn.

What was measured:
[1] = tested on: Entamoeba histolytica; assay: Antiprotozoal activity against Entamoeba histolytica HM-1:IMSS trophozoites after 48 hrs by MTT/PMS assay; format: functional, organism-based
[2] = tested on: Giardia intestinalis; assay: Antiprotozoal activity against Giardia lamblia IMSS:0989:1 after 48 hrs by MTT/PMS assay; format: functional, organism-based; conditions: Giardia duodenalis, IMSS:0989:1, 48 h

Row | Compound | IC50 [1] [µg/mL] | IC50 [2] [µg/mL]
1 | C[C@@H]1O[C@@H](OC[C@H]2O[C@@H](Oc3c(-c4ccc(O)cc4)oc4cc(O)cc(O)c4c3=O)[C@H](O)[C@@H](O)[C@@H]2O)[C@H](O)[C@H](O)[C@H]1O [NICOTIFLOROSIDE] | 30.9 (≈ 52 µM) | 22.5 (≈ 37.8 µM)
2 | C[C@@H]1O[C@@H](OC[C@H]2O[C@@H](Oc3c(-c4ccc(O)c(O)c4)oc4cc(O)cc(O)c4c3=O)[C@H](O)[C@@H](O)[C@@H]2O)[C@H](O)[C@H](O)[C@H]1O [RUTIN] | 120 (≈ 196 µM) | 179 (≈ 293 µM)
3 | CC1(C)CC[C@]2(CO)CC[C@]3(C)C(=CC[C@@H]4[C@@]5(C)CC[C@H](O)C(C)(C)[C@@H]5CC[C@]43C)[C@@H]2C1 [ERYTHRODIOL] | 12.7 (≈ 28.7 µM) | 29.9 (≈ 67.5 µM)
4 | C=C1CC[C@H]2O[C@@]2(C)CC[C@@H]2[C@@H]1CC2(C)C | 71.3 (≈ 324 µM) | 53.8 (≈ 244 µM)
5 | COc1cc(-c2oc3cc(O)cc(O)c3c(=O)c2O[C@@H]2O[C@H](COC(=O)/C=C/c3ccc(O)c(O)c3)[C@H](O)[C@H](O)[C@H]2O)ccc1O | 47.7 (≈ 74.5 µM) | 15.3 (≈ 23.9 µM)
6 | O=c1c(O[C@@H]2O[C@H](CO)[C@@H](O)[C@H](O)[C@H]2O)c(-c2ccc(O)cc2)oc2cc(O)cc(O)c12 [ASTRAGALIN] | 61.2 (≈ 136 µM) | 47.5 (≈ 106 µM)
7 | O=c1c(O[C@@H]2O[C@H](CO)[C@@H](O)[C@H](O)[C@H]2O)c(-c2ccc(O)c(O)c2)oc2cc(O)cc(O)c12 [ISOQUERCETIN] | 14.7 (≈ 31.7 µM) | 87.3 (≈ 188 µM)
8 | O=C(/C=C/c1ccc(O)c(O)c1)OC[C@H]1O[C@@H](Oc2c(-c3ccc(O)cc3)oc3cc(O)cc(O)c3c2=O)[C@H](O)[C@@H](O)[C@H]1O | 30 (≈ 49.1 µM) | 47 (≈ 77 µM)
9 | COc1cc(-c2oc3cc(O)cc(O)c3c(=O)c2O[C@@H]2O[C@H](CO[C@@H]3O[C@@H](C)[C@H](O)[C@@H](O)[C@H]3O)[C@@H](O)[C@H](O)[C@H]2O)ccc1O [NARCISSIN] | 17.2 (≈ 27.5 µM) | 94.7 (≈ 152 µM)
10 | O=C(/C=C/c1ccc(O)c(O)c1)OC[C@H]1O[C@@H](Oc2c(-c3ccc(O)c(O)c3)oc3cc(O)cc(O)c3c2=O)[C@H](O)[C@@H](O)[C@@H]1O | 14 (≈ 22.3 µM) | 105 (≈ 167 µM)
11 | CC[C@H]1CN2CCc3cc(OC)c(OC)cc3[C@@H]2C[C@@H]1C[C@H]1NCCc2cc(OC)c(OC)cc21 [EMETINE] | 1.05 (≈ 2.18 µM) | 0.41 (≈ 0.853 µM)
